Converted amounts (≈) assume the structure as drawn. Structures can show the parent of a compound that is named as a salt. Where two headings read alike, the source gives them in different places.
How the values were obtained:
Format in all cases: cell-based
[1] = system: Mucor circinelloides 1463(62) (ATCC 26759); experiment: Fungal MIC Protocol, Mucor circinelloides (MIC-50); conditions: for MIC50: Mucor circinelloides, read-out: MIC-50 Mucorales circinelloides 26579
Description: (§1) Fungal MIC Protocol: RPMI/MOPS media (Roswell Park Memorial Institute/3-morpholinopropane-1-sulfonic acid media) is prepared by dissolving 8.4 grams RPMI […] (Sigma cat #R1383), 34.52 grams MOPS buffer (Sigma cat #M3.183) and 2 […] glucose in 900 mL deionized water. The pH is adjusted to 7.0 with NaOH and filter sterilized. 0.1 mL, of a stock spore suspension (or loop from frozen stock) is inoculated to a 75 mL tissue culture flask (Falcon cat #353136) containing 50 mL of Potato Dextrose Agar (PDA, 24 grams PD broth (Fisher cat #DF 0549179), 20 grams agar (Fisher cat #BP 1423500) per liter water). Aspergillus and Fusarium strains are grown at 35° C. and Mucor strains are grown at room temperature for 3-5 days. Spores are harvested by flooding the flask with 5 mL phosphate buffered saline (PBS) pH 7.4+0.1% Tween-20 and several glass beads (Fisher cat #S800243) are added to aid in agitation. The supernatant is removed and the OD530 of a 1:100 dilution is measured. Spores are diluted in RPMI/MOPS to a final OD530 of 0.002 for Aspergillus and an OD530 of 0.005 for Fusarium and Mucor. The final concentration of spores is approximately 2×10^4 cfu/mL. Test compound(s) are diluted to 200 ug/mL in RPMI/MOPS ([…]). Ten (10) serial dilutions are prepared with RPMI/MOPS in a 96-well round bottom plate (Fisher cat #353136). For Mucor strains a sterile flat-bottom 96-well plate is used. 50 μl of compound dilutions in duplicate are added to a sterile 96-well round bottom plate. 50 ul of diluted spores are added to the compound-containing plates. Control wells include 1) compound but no cells and 2) spores but no compound. Mix the plates gently by hand, place in ziplock bags and
(§2) incubate at 35° C. for 48 hours. Score the MIC visually (lowest concentration of compound showing >50% growth inhibition) using an inverted mirror.

[2] = system: Mucor ramosissimus 057718 (ATCC 90286); experiment: Fungal MIC Protocol, Mucor ramosissimus (MIC-50); conditions: for MIC50: Mucor ramosissimus, read-out: MIC-50 Mucorales ramosissimus 90286
Description: as §1, §2

[3] = system: Fusarium falciforme FS1 (ATCC MYA-3636); experiment: Fungal MIC Protocol, Fusarium falciforme; conditions: for MIC: Fusarium falciforme, read-out: MIC Fusarium falciforme 3636
Description: as §1
(§3) incubate at 35° C. for 48 hours. […]

[4] = system: Aspergillus flavus AFL1 (ATCC MYA-3631); experiment: Fungal MIC Protocol, Aspergillus flavus; conditions: for MIC: Aspergillus flavus, read-out: MIC Aspergillus flavus 3631
Description: as §1, §3

[5] = system: Fusarium solani (ATCC 58877); experiment: Fungal MIC Protocol, Fusarium solani; conditions: for MIC: Fusarium solani, read-out: MIC Fusarium solani 58877
Description: as §1, §3

Candida albicans GDH2346 = experiment: Candida Minimal Inhibitory Concentration (MIC); conditions: 50% growth inhibition at 48 hours; for MIC50: Candida albicans, GDH2346, read-out: MIC-50 Candida albicans GDH2346
Description: Candida Minimal Inhibitory Concentration (MIC): RPMI/MOPS media is prepared by dissolving 8.4 g RPMI 1640, 34.52 g MOPS buffer and 2 g glucose in 900 mL water. The pH is adjusted to 7.0 with NaOH. The total volume is brought to 1 L and the resulting solution is filter sterilized. The Candida stock is streaked on a Yeast extract Peptone Dextrose (YPD) agar plate and grown at 35° C. for isolation of single colonies. Compounds of the disclosure are diluted to 200 μg/mL in RPMI/MOPS (4.8 ul of 10 mg/mL DMSO stock in 240 ul media). Ten (10) 1:2 serial dilutions are prepared in RPMI/MOPS in a 96-well round bottom plate. Fifty (50) μl of compound dilutions are transferred in duplicate to a sterile tissue culture-treated 96-well flat-bottom, black-sided polypropylene plate. A single colony of Candida from the YPD plate is re-suspended in 5 mL phosphate buffered saline (BS) and optical density (OD) at 600 nm is measured. The suspension is adjusted to OD=1.0 and a 1:1000 dilution is prepared in RPMI/MOPS. Fifty (50) ul aliquots of the diluted yeast are added to the plates containing 50 μL of compound to all wells except 12E-H. Control wells include: 12 A-D cells, no compound and 12 E-H no cells, no compound. The plates are mixed gently by hand and placed in Ziplok bags in a 35° C. incubator. The OD600 is measured at 24 and 48 hours.

[6] = system: Aspergillus fumigatus T33439 (ATCC MYA-3626); experiment: Fungal MIC Protocol, Aspergillus fumigatus; conditions: for MIC: Aspergillus fumigatus, read-out: MIC Aspergillus fumigatus 3626
Description: as §1, §3

[7] = 50% growth inhibition at 48 hours
[8] = 100% growth inhibition at 48 hours

Molecule	MIC [4, 8] [µg/mL]	MIC50 (Candida albicans GDH2346) [µg/mL]	MIC [6, 8] [µg/mL]	further results
4,4-(4,4-(4-Cyclohexyl-4H-1,2,4-triazole-3,5-diyl)bis(4,1-phenylene))bis (5,6-dihydropyridine-1(2H)-carboximidamide) [Example 56]	–	–	–	MIC-50 Mucorales circinelloides 26579 [1, 7]: 0.39 µg/mL; MIC-50 Mucorales ramosissimus 90286 [2, 7]: 1.56 µg/mL; MIC Fusarium falciforme 3636 [3, 8]: <0.1 µg·mL; MIC Aspergillus flavus 3631 [4, 8]: 0.39 µg·mL; MIC Fusarium solani 58877 [5, 8]: <0.1 µg·mL; MIC-50 Candida albicans GDH2346 (Candida albicans GDH2346): 0.78 µg/mL; MIC Aspergillus fumigatus 3626 [6, 8]: 0.39 µg·mL
Cc1c(C2=CCN(C(=N)N)CC2)ccc(-c2nnc(-c3ccc(C4=CCN(C(=N)N)CC4)cc3)o2)c1C [Example 44, 4-(4-(5-(4-(1-Carbamimidoyl-1,2,3,6-tetrahydropyridin-4-yl)-2,3-dimethylphenyl)-1,3,4-oxadiazol-2-yl)phenyl)-5,6-dihydropyridine-1(2H)-carboximidamide]	1.56 (≈ 3.14 µM)	0.39 (≈ 0.785 µM)	6.25 (≈ 12.6 µM)	–
Cc1cc(C2=CCN(C(=N)N)CC2)cc(C)c1-c1nnc(-c2ccc(C3=CCN(C(=N)N)CC3)cc2)o1 [Example 45, 4-(4-(5-(4-(1-Carbamimidoyl-1,2,3,6-tetrahydropyridin-4-yl)-2,6-dimethylphenyl)-1,3,4-oxadiazol-2-yl)phenyl)-5,6-dihydropyridine-1(2H)-carboximidamide]	0.39 (≈ 0.785 µM)	0.39 (≈ 0.785 µM)	0.39 (≈ 0.785 µM)	–
N=C(N)N1CC=C(c2ccc(-c3nnc(-c4ccc(C5=CCN(C(=N)N)CC5)cc4C(F)(F)F)o3)cc2)CC1 [Example 46, 4-(4-(5-(4-(1-Carbamimidoyl-1,2,3,6-tetrahydropyridin-4-yl)-2-(trifluoromethyl)phenyl)-1,3,4-oxadiazol-2-yl)phenyl)-5,6-dihydropyridine-1(2H)-carboximidamide]	1.56 (≈ 2.91 µM)	0.2 (≈ 0.373 µM)	1.56 (≈ 2.91 µM)	–
CNc1cc(C2=CCN(C(=N)N)CC2)ccc1-c1nnc(-c2ccc(C3=CCN(C(=N)N)CC3)cc2F)o1 [Example 47a, 4-(4-(5-(4-(1-Carbamimidoyl-1,2,3,6-tetrahydropyridin-4-yl)-2-(methylamino)phenyl)-1,3,4-oxadiazol-2-yl)-3-fluorophenyl)-5,6-dihydropyridine-1(2H)-carboximidamide]	0.39 (≈ 0.756 µM)	0.78 (≈ 1.51 µM)	1.56 (≈ 3.03 µM)	–
CNc1cc(C2=CCN(C(=N)N)CC2)ccc1-c1nnc(-c2ccc(C3=CCN(C(=N)N)CC3)cc2NC)o1 [Example 47b, 4,4′-(4,4′-(1,3,4-Oxadiazole-2,5-diyl)bis(3-(methylamino)-4,1-phenylene))bis(5,6-dihydropyridine-1(2H)-carboximidamide)]	–	–	–	MIC Aspergillus flavus 3631 [4, 8]: 0.78 µg·mL; MIC-50 Candida albicans GDH2346 (Candida albicans GDH2346): 1.56 µg/mL (≈ 2.96 µM); MIC Aspergillus fumigatus 3626 [6, 8]: 0.78 µg·mL
N=C(N)N1CCN(c2ccc(-c3nnc(-c4ccc(N5CCN(C(=N)N)CC5)cc4)o3)cc2)CC1 [Example 51, 4,4′-(4,4′-(1,3,4-Oxadiazole-2,5-diyl)bis(4,1-phenylene)) dipiperazine-1-carboximidamide]	6.25 (≈ 13.2 µM)	3.13 (≈ 6.6 µM)	0.78 (≈ 1.64 µM)	–
N=C(N)N1CCC(c2ccc(-c3nnc(-c4ccc(C5CCN(C(=N)N)CC5)cc4)o3)cc2)CC1 [Example 52, 4,4′-(4,4′-(1,3,4-Oxadiazole-2,5-diyl)bis(4,1-phenylene)) dipiperidine-1-carboximidamide]	6.25 (≈ 13.2 µM)	4.3 (≈ 9.1 µM)	50 (≈ 106 µM)	–
Cc1cc(C2CCN(C(=N)N)CC2)ccc1-c1nnc(-c2ccc(C3CCN(C(=N)N)CC3)cc2)o1 [Example 53, 4-(4-(5-(4-(1-Carbamimidoylpiperidin-4-yl)-2-methylphenyl)-1,3,4-oxadiazol-2-yl)phenyl)piperidine-1-carboximidamide]	6.25 (≈ 12.8 µM)	1.56 (≈ 3.21 µM)	25 (≈ 51.4 µM)	–
Cn1nc(-c2ccc(N3CCN(C(=N)N)CC3)cc2)cc1-c1ccc(N2CCN(C(=N)N)CC2)cc1 [Example 55, 4,4′-(4,4′-(1-Methyl-1H-pyrazole-3,5-diyl)bis(4,1-phenylene)) dipiperazine-1-carboximidamide]	3.13 (≈ 6.43 µM)	1.56 (≈ 3.21 µM)	0.78 (≈ 1.6 µM)	–
Cc1cc(-c2nnc(-c3ccc(N4CCN(C(=N)N)CC4)cc3)o2)ccc1N1CCN(C(=N)N)CC1 [Example 60, 4-(4-{5-[4-(4-Carbamimidoylpiperazin-1-yl)-3-methylphenyl]-1,3,4-oxadiazol-2-yl}phenyl)piperazine-1-carboximidamide]	25 (≈ 51.2 µM)	1.56 (≈ 3.19 µM)	25 (≈ 51.2 µM)	–
Cc1cc(N2CCN(C(=N)N)CC2)ccc1-c1nnc(-c2ccc(N3CCN(C(=N)N)CC3)cc2)o1 [Example 61, 4-(4-{5-[4-(4-Carbamimidoylpiperazin-1-yl)-2-methylphenyl]-1,3,4-oxadiazol-2-yl}phenyl)piperazine-1-carboximidamide]	3.13 (≈ 6.41 µM)	1.56 (≈ 3.19 µM)	0.78 (≈ 1.6 µM)	–
COCCOCCn1c(-c2ccc(C3=CCN(C(=N)N)CC3)cc2F)nnc1-c1ccc(C2=CCN(C(=N)N)CC2)cc1F [Example 81, 4-(4-{5-[4-(1-carbamimidoyl-1,2,3,6-tetrahydropyridin-4-yl)-2-fluorophenyl]-4-[2-(2-methoxyethoxy)ethyl]-4H-1,2,4-triazol-3-yl}-3-fluorophenyl)-1,2,3,6-tetrahydropyridine-1-carboximidamide]	0.78 (≈ 1.29 µM)	–	0.39 (≈ 0.644 µM)	MIC50 ([1]; ATCC26759, 50% growth inhibition at 48 hours): 1.56 µg/mL (≈ 2.58 µM); MIC50 ([2]; ATCC90286, 50% growth inhibition at 48 hours): 6.25 µg/mL (≈ 10.3 µM); MIC [3, 8]: 0.1 µg/mL (≈ 0.165 µM); MIC ([5]; ATCC58877, 100% growth inhibition at 48 hours): 0.1 µg/mL (≈ 0.165 µM)
CC(CO)n1c(-c2ccc(C3=CCN(C(=N)N)CC3)cc2F)nnc1-c1ccc(C2=CCN(C(=N)N)CC2)cc1F (stereo not shown) [Example 83, 4-(4-{5-[4-(1-carbamimidoyl-1,2,3,6-tetrahydropyridin-4-yl)-2-fluorophenyl]-4-(1-hydroxypropan-2-yl)-4H-1,2,4-triazol-3-yl}-3-fluorophenyl)-1,2,3,6-tetrahydropyridine-1-carboximidamide hydrochloride]	–	–	–	MIC50 ([1]; ATCC26759, 48 h): 1.56 µg/mL; MIC50 ([2]; ATCC90286, 48 h): 12.5 µg/mL; MIC ([3]; 48 h): 0.2 µg/mL; MIC ([4]; 48 h): 0.78 µg/mL; MIC ([5]; ATCC58877, 48 h): 0.2 µg/mL; MIC ([6]; 48 h): 0.39 µg/mL

Source: US20240018121A1, “NOVEL HETEROAROMATIC COMPOUNDS EXHIBITING ANTIFUNGAL ACTIVITY AND THEIR METHOD OF USE” (FOX CHASE CHEMCIAL DIVERSITY CENTER, INC., priority 2020, published 2024)
